Test system: subjects with chronic idiopathic thrombocytopenic purpura (ITP)
Assay: Phase 2 28-day study of E5501 tablets: safety and tolerability (TEAEs, discontinuations)
Assay type: in vivo, human
Details: for Discontinued study, primary reason Adverse Event or SAE / Discontinued study, primary reason Platelet Count Increase to ≧500 K/mm^3: Pharmacokinetic Population; for Abdominal pain / Diarrhoea / Ecchymosis / Epistaxis / Fatigue / Headache / Migraine / Nausea / Pain in extremity / Petechiae / Platelet count increased / Upper respiratory tract infection / Vomiting: TEAE
Method: This was a phase 2, multi-center, double-blind, randomized, placebo-controlled, dose-ranging, parallel group study of E5501 tablets, used in the treatment of subjects with chronic idiopathic thrombocytopenic purpura (ITP) refractory to or relapsed after at least one prior ITP therapy. Subjects who met all entry criteria were randomly assigned in a 3:3:3:3:1 ratio to one of the following five treatment groups dosed daily for 28 days: 1) E5501 2.5 mg; 2) E5501 5 mg; 3) E5501 10 mg; 4) E5501 20 mg; or 5) placebo (PBO). Each E5501 dosing group consisted of 15 subjects while the PBO group consisted of 5 subjects. All study subjects were evaluated weekly (days 7, 14, 21 and 28) for safety and efficacy while receiving study treatment, with a final assessment for safety and effectiveness performed 4 weeks after the last study dose (day 56) unless the subject entered the follow-on study. Platelet counts were also measured on day 3 and day 5.
The safety and tolerability parameters included adverse events, clinical laboratory parameters, study drug exposure, vital electrocardiograms, concomitant medications, serum pregnancy tests for women of childbearing potential and physical examinations including height, weight, general appearance and recording of vital signs.
The populations of interest were defined as follows: • The randomized population included all subjects who were randomized into the study. • The safety population included all randomized subjects who receive at least one dose of study drug and have at least one safety assessment. • The pharmacokinetic (PK) population included all subjects who provided blood sample for analysis of E5501. A subject was included in this population if the subject had at least one blood draw for PK assessment. • The full analysis set (FAS) included all subjects who provided adequate data to derive at least one efficacy assessment. […] The day 28 visit window was defined to be from day 25, to last dose day+1, inclusively; • Other major protocol violations that impacted the platelet endpoint evaluation. Results from Planned Analyses
Subject Disposition. Sixty four subjects were randomly assigned to treatment in this study. All treated subjects provided adequate efficacy data and therefore were included in the FAS population. The number and percentage of subjects who completed treatment or discontinued prematurely were summarized by treatment groups as shown in Table 1. In addition, the number and percentage of subjects who withdrew were summarized by reason for discontinuation by treatment group. The majority (>85%) of subjects completed the study across all dose groups for the FAS, randomized, and safety populations. Seven subjects who discontinued the study early all were from E5501 dose groups: two subjects in each of 2.5, 10 and 20 mg dose groups and one subject in the 5 mg dose group.

O=C(Nc1nc(-c2cc(Cl)cs2)c(N2CCN(C3CCCCC3)CC2)s1)c1cnc(N2CCC(C(=O)O)CC2)c(Cl)c1 [E5501, 1-(3-chloro-5-{[4-(4-chlorothiophen-2-yl)-5-(4-cyclohexylpiperazin-1-yl)thiazol-2-yl]carbamoyl}pyridine-2-yl)piperidine-4-carboxylic acid]
diarrhea, nausea and vomiting, total events: 12 events
subjects whose platelet count decreased to below that of baseline upon discontinuation of E5501: 3 subjects
subjects with diarrhea, nausea and vomiting events: 7 subjects
tolerability and safety profile: well tolerated and had a favorable safety profile
Death (2.5 mg): 0 n (%)
Serious TEAEs (Any Serious TEAE) (2.5 mg): 2 (13.3) n (%)
TEAE Leading to Study Treatment Dose Interruption (2.5 mg): 0 n (%)
TEAE Leading to Study Treatment Withdrawal (2.5 mg): 0 n (%)
TEAEs (2.5 mg): 12 (80.0) n (%)
Treatment-Related Serious TEAEs (2.5 mg): 0 n (%)
Treatment-Related TEAEs (2.5 mg): 6 (40.0) n (%)
number of serious TEAEs (2.5 mg): 2
Death (5 mg): 0 n (%)
Serious TEAEs (Any Serious TEAE) (5 mg): 0 n (%)
TEAE Leading to Study Treatment Dose Interruption (5 mg): 1 (6.7) n (%)
TEAE Leading to Study Treatment Withdrawal (5 mg): 1 (6.7) n (%)
TEAEs (5 mg): 13 (86.7) n (%)
Treatment-Related Serious TEAEs (5 mg): 0 n (%)
Treatment-Related TEAEs (5 mg): 11 (73.3) n (%)
Death (10 mg): 0 n (%)
Serious TEAEs (Any Serious TEAE) (10 mg): 1 (7.1) n (%)
TEAE Leading to Study Treatment Dose Interruption (10 mg): 0 n (%)
TEAE Leading to Study Treatment Withdrawal (10 mg): 1 (7.1) n (%)
TEAEs (10 mg): 11 (78.6) n (%)
Treatment-Related Serious TEAEs (10 mg): 1 (7.1) n (%)
Treatment-Related TEAEs (10 mg): 8 (57.1) n (%)
number of serious TEAEs (10 mg): 4
Death (20 mg): 0 n (%)
Serious TEAEs (Any Serious TEAE) (20 mg): 0 n (%)
TEAE Leading to Study Treatment Dose Interruption (20 mg): 2 (13.3) n (%)
TEAE Leading to Study Treatment Withdrawal (20 mg): 2 (13.3) n (%)
TEAEs (20 mg): 14 (93.3) n (%)
Treatment-Related Serious TEAEs (20 mg): 0 n (%)
Treatment-Related TEAEs (20 mg): 10 (66.7) n (%)
subjects who withdrew due to excessively increased platelet counts (≧500,000/mm^3) (20 mg): 2 subjects
Discontinued study, primary reason Adverse Event or SAE (2.5 mg): 0 n (%)
Discontinued study, primary reason Platelet Count Increase to ≧500 K/mm^3 (2.5 mg): 0 n (%)
Discontinued study, primary reason Adverse Event or SAE (5 mg): 1 (6.7) n (%)
Discontinued study, primary reason Platelet Count Increase to ≧500 K/mm^3 (5 mg): 0 n (%)
Discontinued study, primary reason Adverse Event or SAE (10 mg): 1 (7.1) n (%)
Discontinued study, primary reason Platelet Count Increase to ≧500 K/mm^3 (10 mg): 0 n (%)
Discontinued study, primary reason Adverse Event or SAE (20 mg): 0 n (%)
Discontinued study, primary reason Platelet Count Increase to ≧500 K/mm^3 (20 mg): 2 (13.3) n (%)
Discontinued study, primary reason Adverse Event or SAE (Total E5501): 2 (3.4) n (%)
Discontinued study, primary reason Platelet Count Increase to ≧500 K/mm^3 (Total E5501): 2 (3.4) n (%)
Abdominal pain (2.5 mg): 0 n (%)
Diarrhoea (2.5 mg): 1 (6.7) n (%)
Ecchymosis (2.5 mg): 0 n (%)
Epistaxis (2.5 mg): 4 (26.7) n (%)
Fatigue (2.5 mg): 2 (13.3) n (%)
Headache (2.5 mg): 4 (26.7) n (%)
Migraine (2.5 mg): 0 n (%)
Nausea (2.5 mg): 0 n (%)
Pain in extremity (2.5 mg): 0 n (%)
Petechiae (2.5 mg): 0 n (%)
Platelet count increased (2.5 mg): 0 n (%)
Upper respiratory tract infection (2.5 mg): 1 (6.7) n (%)
Vomiting (2.5 mg): 1 (6.7) n (%)
Abdominal pain (5 mg): 2 (13.3) n (%)
Diarrhoea (5 mg): 2 (13.3) n (%)
Ecchymosis (5 mg): 0 n (%)
Epistaxis (5 mg): 2 (13.3) n (%)
Fatigue (5 mg): 4 (26.7) n (%)
Headache (5 mg): 3 (20.0) n (%)
Migraine (5 mg): 0 n (%)
Nausea (5 mg): 0 n (%)
Pain in extremity (5 mg): 2 (13.3) n (%)
Petechiae (5 mg): 0 n (%)
Platelet count increased (5 mg): 0 n (%)
Upper respiratory tract infection (5 mg): 0 n (%)
Vomiting (5 mg): 0 n (%)
Abdominal pain (10 mg): 0 n (%)
Diarrhoea (10 mg): 0 n (%)
Ecchymosis (10 mg): 3 (21.4) n (%)
Epistaxis (10 mg): 1 (7.1) n (%)
Fatigue (10 mg): 4 (28.6) n (%)
Headache (10 mg): 1 (7.1) n (%)
Migraine (10 mg): 0 n (%)
Nausea (10 mg): 2 (14.3) n (%)
Pain in extremity (10 mg): 0 n (%)
Petechiae (10 mg): 0 n (%)
Platelet count increased (10 mg): 0 n (%)
Upper respiratory tract infection (10 mg): 2 (14.3) n (%)
Vomiting (10 mg): 1 (7.1) n (%)
Abdominal pain (20 mg): 0 n (%)
Diarrhoea (20 mg): 2 (13.3) n (%)
Ecchymosis (20 mg): 0 n (%)
Epistaxis (20 mg): 2 (13.3) n (%)
Fatigue (20 mg): 2 (13.3) n (%)
Headache (20 mg): 4 (26.7) n (%)
Migraine (20 mg): 2 (13.3) n (%)
Nausea (20 mg): 1 (6.7) n (%)
Pain in extremity (20 mg): 1 (6.7) n (%)
Petechiae (20 mg): 2 (13.3) n (%)
Platelet count increased (20 mg): 4 (26.7) n (%)
Upper respiratory tract infection (20 mg): 0 n (%)
Vomiting (20 mg): 2 (13.3) n (%)
Abdominal pain (Total E5501): 2 (3.4) n (%)
